Results: patent US20260083865A1, “PROSTATE SPECIFIC MEMBRANE ANTIGEN (PSMA) LIGANDS AND USE THEREOF” (priority 2022, published 2026)
Where two headings read alike, the source gives them in different places. Numbered stars: 1 amine (or outer) side, 2 acyl side, 3 side chain; on linkers, the order of the positions; unused ones are H or OH. Bridge positions count the residues as written; N and C are the ends. Square brackets hold non-standard residues; d marks the D form. Side chains are listed from the residue outwards. Peptide text beside a SMILES is read from it. * marks the point of attachment. ξ: configuration not given here. TtdsdLys(DOTA)NH2 = NC(=O)[C@@H](CCCCNC(=O)CN1CCN(CC(=O)O)CCN(CC(=O)O)CCN(CC(=O)O)CC1)NC(=O)CCC(=O)NCCCOCCOCCOCCCN*; DOTA = O=C(O)CN1CCN(CC(=O)O)CCN(CC(=O)*)CCN(CC(=O)O)CC1; Phe(3-Cl) = N[C@@H](Cc1cccc(Cl)c1)C(=O)O; Phe(4-Cl) = N[C@@H](Cc1ccc(Cl)cc1)C(=O)O; Phe(4-NH2) = Nc1ccc(C[C@H](N)C(=O)O)cc1; Thz(5,5-Me2) = CC1(C)SCN[C@@H]1C(=O)O; X1 = O=C(CC1CCN([*:1])CC1)[*:2]; NMeL = CN[C@@H](CC(C)C)C(=O)O; NMeK = CN[C@@H](CCCCN)C(=O)O; Tle = CC(C)(C)[C@H](N)C(=O)O; Nle = CCCC[C@H](N)C(=O)O; Hexanoyl = CCCCCC(=O)*; AEEA = NCCOCCOCC(=O)O; Aib = CC(C)(N)C(=O)O; ξP = O=C(O)C1CCCN1

What was measured:
[1] = molecular target: T1, Fc-fusion protein of human PSMA (hPSMA-Fc) (Homo sapiens, UniProt Q04609); experiment: Surface plasmon resonance assay (Biacore T200, single cycle kinetic); assay type: binding; conditions: hPSMA-Fc, 25° C., read-out: pKD CAT (converted)
T1 construct: purchased Acro Biosystems PSA-H5264
T1 sequence (Q04609 44-750 limits assumed): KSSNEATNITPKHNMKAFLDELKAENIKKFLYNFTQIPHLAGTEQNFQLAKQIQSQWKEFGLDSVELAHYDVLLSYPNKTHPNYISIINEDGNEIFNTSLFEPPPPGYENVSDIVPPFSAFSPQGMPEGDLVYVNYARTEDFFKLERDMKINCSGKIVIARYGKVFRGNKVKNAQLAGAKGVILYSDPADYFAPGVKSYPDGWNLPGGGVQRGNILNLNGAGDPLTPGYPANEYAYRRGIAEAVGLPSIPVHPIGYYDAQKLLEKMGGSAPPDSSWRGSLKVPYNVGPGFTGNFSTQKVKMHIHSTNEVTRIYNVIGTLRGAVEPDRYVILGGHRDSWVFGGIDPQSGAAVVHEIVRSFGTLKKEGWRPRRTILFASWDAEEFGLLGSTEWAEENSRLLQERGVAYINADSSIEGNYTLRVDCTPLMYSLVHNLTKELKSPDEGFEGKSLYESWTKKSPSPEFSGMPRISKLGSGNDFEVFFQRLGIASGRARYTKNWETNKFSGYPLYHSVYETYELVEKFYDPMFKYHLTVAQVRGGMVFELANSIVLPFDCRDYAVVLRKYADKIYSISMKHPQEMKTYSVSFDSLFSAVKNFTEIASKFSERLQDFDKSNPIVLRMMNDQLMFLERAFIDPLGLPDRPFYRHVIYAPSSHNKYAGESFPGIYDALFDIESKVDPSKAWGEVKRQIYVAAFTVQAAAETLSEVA
Summary of the method: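 hPSMA-Fc was captured (~1000 RU) on an Fc-binding-peptide CM5 chip, and compounds were run in single cycle kinetic mode at 25° C in HBST with 0.1% DMSO. Double-blank-corrected sensorgrams were fitted to a 1:1 Langmuir model to give KD, reported as pKD.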

[2] = molecular target: T2, PSMA-expressing C4-2 cells (Homo sapiens, UniProt Q04609); experiment: FACS binding assay (competition with 50 nM PSM-0183); conditions: read-out: pIC50 [C4-2] CAT (converted)
T2 construct: PSMA-expressing C4-2 cells (ATCC, Cat. No. CRL-3314) were cultured in RPMI-1640; host or cells: C4-2 cells
T2 sequence (Q04609 whole entry): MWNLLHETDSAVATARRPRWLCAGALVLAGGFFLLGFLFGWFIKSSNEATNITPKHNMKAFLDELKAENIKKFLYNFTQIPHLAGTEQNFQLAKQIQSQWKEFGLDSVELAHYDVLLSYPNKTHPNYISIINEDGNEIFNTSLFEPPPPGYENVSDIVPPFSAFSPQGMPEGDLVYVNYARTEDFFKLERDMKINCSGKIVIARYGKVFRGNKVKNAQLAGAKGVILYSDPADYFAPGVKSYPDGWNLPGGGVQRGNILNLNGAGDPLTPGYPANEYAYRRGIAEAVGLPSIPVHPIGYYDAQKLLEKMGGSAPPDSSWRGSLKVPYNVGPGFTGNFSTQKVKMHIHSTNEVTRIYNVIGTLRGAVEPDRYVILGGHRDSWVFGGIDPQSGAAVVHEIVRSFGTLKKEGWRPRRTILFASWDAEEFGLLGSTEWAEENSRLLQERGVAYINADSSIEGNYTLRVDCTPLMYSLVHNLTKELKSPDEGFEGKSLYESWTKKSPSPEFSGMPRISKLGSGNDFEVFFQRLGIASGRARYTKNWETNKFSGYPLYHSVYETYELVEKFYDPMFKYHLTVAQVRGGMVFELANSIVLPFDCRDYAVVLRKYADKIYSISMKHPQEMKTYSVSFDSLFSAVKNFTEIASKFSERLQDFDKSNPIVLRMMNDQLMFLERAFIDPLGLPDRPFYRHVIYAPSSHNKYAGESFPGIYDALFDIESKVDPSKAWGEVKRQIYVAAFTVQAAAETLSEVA
Summary of the method: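 C4-2 cells were incubated 1 h at 4 °C with 50 nM AF488-labelled peptide PSM-0183 plus increasing test compound concentrations, then washed twice in ice-cold buffer. Median fluorescence in the AF488 channel was read by flow cytometry. IC50/pIC50 was derived by 4PL fitting of MFI versus concentration.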

[3] = pKD category for PSMA SPR activity assay
[4] = pIC50 category of FACS binding, C4-2 cells

With CCCC[C@H](NC(=O)[C@@H]1CSSC[C@H](NC(=O)[C@H](Cc2ccccc2)NC(=O)[C@H](C)NC(=O)[C@@H](NC(C)=O)[C@@H](C)O)C(=O)N[C@@H](CCCCN)C(=O)N[C@@H](CCCNC(=N)N)C(=O)N[C@@H](CCC(=O)O)C(=O)N[C@@H](CC(N)=O)C(=O)N1)C(=O)N[C@@H](C(=O)N[C@H](CC(=O)O)C(N)=O)[C@H](C)O [PSM-0197, Ac-Thr-Ala-Phe-[Cys-Lys-Arg-Glu-Asn-Cys]-Nle-Thr-Asp-NH2] (Ac-TAFCKRENC[Nle][dT][dD]-NH2; disulfide 4-9) the Kd ([1]; SPR, single cycle kinetic, category) was 12.6 to 126 nM and the IC50 ([2]; FACS binding, C4-2 cells, competition with 50 nM PSM-0183, category) was < 200 nM.

For CC(=O)N[C@H](C(=O)NC(C)(C)C(=O)N[C@@H](Cc1cccc(Cl)c1)C(=O)N[C@H]1CSSC[C@@H](C(=O)N[C@H](C(=O)N[C@H](C(=O)N2CCC(CC(=O)N[C@H](CCCCNC(=O)CN3CCN(CC(=O)O)CCN(CC(=O)O)CCN(CC(=O)O)CC3)C(N)=O)CC2)[C@@H](C)O)C(C)(C)C)NC(=O)[C@H](CC(N)=O)NC(=O)C(C)(C)NC(=O)[C@H](CCCNC(=N)N)NC(=O)[C@H](CCCCN)NC1=O)[C@@H](C)O [PSM-0486, Ac-Thr-Aib-Mcf-[Cys-Lys-Arg-Aib-Asn-Cys]-Tle-Thr-Cmp-lys(DOTA)-NH2] (Ac-T[Aib][Phe(3-Cl)]CKR[Aib]NC[Tle]T[X1][dK](DOTA)-NH2; disulfide 4-9), the Kd [1, 3] was < 12.6 nM and the IC50 [2, 4] was < 200 nM.

CC(=O)N[C@H](C(=O)NC(C)(C)C(=O)N[C@@H](Cc1ccccc1)C(=O)N[C@H]1CSSC[C@@H](C(=O)N[C@H](C(=O)N[C@H](C(=O)N[C@@H](CC(=O)O)C(N)=O)[C@@H](C)O)C(C)(C)C)NC(=O)[C@H](CC(N)=O)NC(=O)[C@H]2N(CSC2(C)C)C(=O)[C@H](CCCNC(=N)N)NC(=O)[C@H](CCCCN)NC1=O)[C@@H](C)O [PSM-0532, Ac-Thr-Aib-Phe-[Cys-Lys-Arg-Dtc-Asn-Cys]-Tle-Thr-Asp-NH2] (Ac-T[Aib]FCKR[Thz(5,5-Me2)]NC[Tle]TD-NH2; disulfide 4-9) was tested, and the Kd [1, 3] was < 12.6 nM and the IC50 [2, 4] was < 200 nM.

For CC(=O)NC(C)(C)C(=O)N[C@@H](Cc1ccc(Cl)cc1)C(=O)N[C@H]1CSSC[C@@H](C(=O)N[C@H](C(=O)N[C@H](C(=O)N[C@H](CCCCNC(=O)CN2CCN(CC(=O)O)CCN(CC(=O)O)CCN(CC(=O)O)CC2)C(N)=O)[C@@H](C)O)C(C)(C)C)NC(=O)[C@H](CC(N)=O)NC(=O)C(C)(C)NC(=O)[C@H](CCCNC(=N)N)NC(=O)[C@H](CCCCN)NC1=O [PSM-0404, Ac-Aib-Pcf-[Cys-Lys-Arg-Aib-Asn-Cys]-Tle-Thr-lys(DOTA)-NH2] (Ac-[Aib][Phe(4-Cl)]CKR[Aib]NC[Tle]T[dK](DOTA)-NH2; disulfide 3-8), the Kd [1, 3] was < 12.6 nM and the IC50 [2, 4] was < 200 nM.

For CC(C)C[C@@H](C(=O)N[C@H](C(N)=O)[C@@H](C)O)N(C)C(=O)[C@@H]1CSSC[C@H](NC(=O)[C@H](Cc2ccc(Cl)cc2)NC(=O)C(C)(C)NC(=O)[C@@H](NC(=O)CC2CCN(C(=O)CN3CCN(CC(=O)O)CCN(CC(=O)O)CCN(CC(=O)O)CC3)CC2)[C@@H](C)O)C(=O)N[C@@H](CCCCN)C(=O)N[C@@H](CCCNC(=N)N)C(=O)NC(C)(C)C(=O)N[C@@H](CC(N)=O)C(=O)N1 [PSM-0497, DOTA-Cmp-Thr-Aib-Pcf-[Cys-Lys-Arg-Aib-Asn-Cys]-Nml-Thr-NH2] ({DOTA}-[X1]T[Aib][Phe(4-Cl)]CKR[Aib]NC[NMeL]T-NH2; disulfide 5-10), the Kd [1, 3] was 126 to 501 nM and the IC50 [2, 4] was 200 to 1260 nM.

For CC(=O)N[C@H](C(=O)NC(C)(C)C(=O)N[C@@H](Cc1ccccc1)C(=O)N[C@H]1CSSC[C@@H](C(=O)N[C@H](C(=O)N[C@H](C(N)=O)[C@@H](C)O)C(C)(C)C)NC(=O)[C@H](CC(N)=O)NC(=O)C(C)(C)NC(=O)[C@H](CCCNC(=N)N)NC(=O)[C@H](CCCCN)N(C)C1=O)[C@@H](C)O [PSM-0451, Ac-Thr-Aib-Phe-[Cys-Nmk-Arg-Aib-Asn-Cys]-Tle-Thr-NH2] (Ac-T[Aib]FC[NMeK]R[Aib]NC[Tle]T-NH2; disulfide 4-9), the Kd [1, 3] was 12.6 to 126 nM and the IC50 [2, 4] was 200 to 1260 nM.

With CC(=O)N[C@H](C(=O)NC(C)(C)C(=O)N[C@@H](Cc1ccccc1)C(=O)N[C@H]1CSSC[C@@H](C(=O)N[C@H](C(=O)N[C@H](C(N)=O)[C@@H](C)O)C(C)(C)C)NC(=O)[C@H](CC(N)=O)NC(=O)[C@H](C)NC(=O)[C@H](CCCNC(=N)N)NC(=O)[C@H](CCCCN)NC1=O)[C@@H](C)O [PSM-0552, Ac-Thr-Aib-Phe-[Cys-Lys-Arg-Ala-Asn-Cys]-Tle-Thr-NH2] (Ac-T[Aib]FCKRANC[Tle]T-NH2; disulfide 4-9) the Kd [1, 3] was < 12.6 nM and the IC50 [2, 4] was < 200 nM.

In the case of CC(=O)N[C@H](C(=O)NC(C)(C)C(=O)N[C@@H](Cc1ccccc1)C(=O)N[C@H]1CSSC[C@@H](C(=O)N[C@H](C(=O)N2CCCC2C(N)=O)C(C)(C)C)NC(=O)[C@H](CC(N)=O)NC(=O)C(C)(C)NC(=O)[C@H](CCCNC(=N)N)NC(=O)[C@H](CCCCN)NC1=O)[C@@H](C)O (stereo partly drawn) [PSM-0388, Ac-Thr-Aib-Phe-[Cys-Lys-Arg-Aib-Asn-Cys]-Tle-Pro-NH2] (Ac-T[Aib]FCKR[Aib]NC[Tle][ξP]-NH2; disulfide 4-9), the Kd [1, 3] is reported as < 12.6 nM and the IC50 [2, 4] is reported as < 200 nM.

CC(=O)N[C@H](C(=O)NC(C)(C)C(=O)N[C@@H](Cc1ccccc1)C(=O)N[C@H]1CSSC[C@@H](C(=O)N[C@H](C(=O)N[C@H](C(=O)N[C@@H](CC(=O)O)C(N)=O)[C@@H](C)O)C(C)(C)C)NC(=O)[C@H](CC(N)=O)NC(=O)[C@H](C)NC(=O)[C@H](CCCNC(=N)N)NC(=O)[C@H](Cc2ccc(N)cc2)NC1=O)[C@@H](C)O [PSM-0439, Ac-Thr-Aib-Phe-[Cys-Aph-Arg-Ala-Asn-Cys]-Tle-Thr-Asp-NH2] (Ac-T[Aib]FC[Phe(4-NH2)]RANC[Tle]TD-NH2; disulfide 4-9) was tested, and the Kd [1, 3] was 126 to 501 nM and the IC50 [2, 4] was < 200 nM.

CCCCCC(=O)N[C@H](C(=O)NC(C)(C)C(=O)N[C@@H](Cc1ccccc1)C(=O)N[C@H]1CSSC[C@@H](C(=O)N[C@H](C(=O)N[C@H](C(=O)NCCCOCCOCCOCCCNC(=O)CCC(=O)N[C@H](CCCCNC(=O)CN2CCN(CC(=O)O)CCN(CC(=O)O)CCN(CC(=O)O)CC2)C(N)=O)[C@@H](C)O)C(C)(C)C)NC(=O)[C@H](CC(N)=O)NC(=O)C(C)(C)NC(=O)[C@H](CCC(N)=O)NC(=O)[C@H](CCCCN)NC1=O)[C@@H](C)O [PSM-0289, Hex-Thr-Aib-Pho-[Cys-Lys-Gln-Aib-Asn-Cys]-Tle-Thr-Ttds-lys(DOTA)-NH2] (Hexanoyl-T[Aib]FCKQ[Aib]NC[Tle]T-{TtdsdLys(DOTA)NH2}; disulfide 4-9) was tested, and the Kd ([1]; PSMA SPR assay, pKD category) was 12.6 to 126 nM and the IC50 ([2]; FACS binding, PSMA-expressing C4-2 cells, pIC50 category) was 200 to 1260 nM.

CC(=O)N[C@H](C(=O)NC(C)(C)C(=O)N[C@@H](Cc1ccc(Cl)cc1)C(=O)N[C@H]1CSSC[C@@H](C(=O)N[C@H](C(=O)N[C@H](C(N)=O)[C@@H](C)O)C(C)(C)C)NC(=O)[C@H](CC(N)=O)NC(=O)[C@H](CCCCNC(=O)COCCOCCNC(=O)CN2CCN(CC(=O)O)CCN(CC(=O)O)CCN(CC(=O)O)CC2)NC(=O)[C@H](CCCNC(=N)N)NC(=O)[C@H](CCCCN)NC1=O)[C@@H](C)O [PSM-0370, Ac-Thr-Aib-Pcf-[Cys-Lys-Arg-Lys(DOTA-020c)-Asn-Cys]-Tle-Thr-NH2] (Ac-T[Aib][Phe(4-Cl)]CKRK([AEEA-DOTA])NC[Tle]T-NH2; disulfide 4-9) was tested, and the Kd [1, 3] was < 12.6 nM and the IC50 [2, 4] was < 200 nM.
